Biological target: T1, OmTRPV1 (Oncorhynchus masou, UniProt Z9PIN9CDR2)
T1 construct: cDNA cloned from spinal cord into pOX(+) via EcoRI/NotI; forward primer starts at ATG, reverse primer with stop codon; cRNA-injected Xenopus laevis oocytes; S487 and V525 correspond to mammalian S512 and T550
T1 sequence (Z9PIN9CDR2 1-804): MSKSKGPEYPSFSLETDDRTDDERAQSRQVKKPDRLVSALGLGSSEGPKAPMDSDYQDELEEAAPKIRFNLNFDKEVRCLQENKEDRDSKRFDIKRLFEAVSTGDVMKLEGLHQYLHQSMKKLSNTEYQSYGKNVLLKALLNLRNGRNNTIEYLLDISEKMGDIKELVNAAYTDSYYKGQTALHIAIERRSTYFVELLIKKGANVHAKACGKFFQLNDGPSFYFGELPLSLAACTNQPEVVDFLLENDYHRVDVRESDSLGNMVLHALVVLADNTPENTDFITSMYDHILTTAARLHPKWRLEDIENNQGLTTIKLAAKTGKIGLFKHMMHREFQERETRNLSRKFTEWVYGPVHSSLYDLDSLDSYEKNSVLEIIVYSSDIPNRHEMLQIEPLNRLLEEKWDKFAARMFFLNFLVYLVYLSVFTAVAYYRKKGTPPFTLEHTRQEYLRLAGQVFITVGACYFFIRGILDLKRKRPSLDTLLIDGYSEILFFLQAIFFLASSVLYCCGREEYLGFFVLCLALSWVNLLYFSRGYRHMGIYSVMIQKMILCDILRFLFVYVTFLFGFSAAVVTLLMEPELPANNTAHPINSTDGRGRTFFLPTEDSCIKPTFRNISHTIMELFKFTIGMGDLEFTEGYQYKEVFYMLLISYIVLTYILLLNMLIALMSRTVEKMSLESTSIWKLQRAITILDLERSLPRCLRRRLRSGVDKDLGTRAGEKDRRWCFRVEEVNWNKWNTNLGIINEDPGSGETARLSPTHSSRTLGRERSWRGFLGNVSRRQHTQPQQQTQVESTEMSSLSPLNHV
Assay: two-electrode voltage-clamp, Xenopus laevis oocytes
Type: cell-based

COc1cc(CNC(=O)CCCC/C=C/C(C)C)ccc1O [capsaicin]
EC50: 10.4 µM

Source: article PMC9309644, “Functional analysis of thermo-sensitive TRPV1 in an aquatic vertebrate, masu salmon (Oncorhynchus masou ishikawae)” (Biochemistry and Biophysics Reports, 2022)
